One experiment relates to BAT mitochondria. The experiment is described as follows: test (b): GDP binding in BAT mitochondria of cold adapted rats, relative to isoprenaline. The settings on record: dose necessary to produce 50% of the isoprenaline (1 mg/kg) effect on GDP binding. The experiment is classed as in vivo.
The nature of experiment [1]: test (d): metabolic rate (oxygen consumption) in cold adapted rats. Type of experiment: in vivo. The settings on record: at 1mgkg⁻¹ p.o.
The nature of experiment [2]: test (c): heart rate in rats adapted to a thermoneutral environment (D500 dose and selectivity index). The settings on record: ratio of D₅₀₀ to ED₅₀ in test (b).

Regarding `CCCC(=O)Cc1ccc(OCCNCC(O)COc2ccccc2)cc1` (stereo not shown) [Example 5, 1-[4-(2-(2-hydroxy-3-phenoxypropylamino)ethoxy)phenyl]pentan-2-one], the ED₅₀ with BAT mitochondria came to 0.23 mgkg⁻¹. The same molecule had a metabolic rate in experiment [1] of 6.6 ml O₂ min ⁻¹Kg^.75. The SI in experiment [2] (oral) is reported as greater than 100.

`CC(C)NCC(O)c1ccc(O)c(O)c1` (stereo not shown) [isoprenaline, reference compound]: the SI in experiment [2] (route not stated) is listed as 0.06.
